We go through 21 compounds from ChEMBL document CHEMBL1155301, “Optimization of the aminopyridopyrazinones class of PDE5 inhibitors: discovery of 3-[(trans-4-hydroxycyclohexyl)amino]-7-(6-methoxypyridin-3-yl)-1-(2-propoxyethyl)pyrido[3,4-b]pyrazin-2(1H)-one” (Bioorg Med Chem Lett, 2009).

Activity calls are given as the source filed them. No cut-off for these calls is given here.

The first data set addresses cGMP-specific 3',5'-cyclic phosphodiesterase (Homo sapiens, UniProt O76074). Kind of data set: Inhibition of PDE5.
Details: not given
The compound `CCCOCCn1c(=O)c(NCCN(C)C)nc2ncc(-c3ccc(OC)nc3)cc21` returned an IC50 of 4 nM.
Compound `CCCOCCn1c(=O)c(NCCN)nc2ncc(-c3ccc(OC)nc3)cc21` had an IC50 of 16.3 nM.
The same measure, in the same setting: next, `CCCOCCn1c(=O)c(N[C@H](C)CO)nc2cnc(-c3ccc(OC)nc3)cc21`: 0.14 nM; `CCCOCCn1c(=O)c(NCC(=O)N2CCN(CC)CC2)nc2ncc(-c3ccc(OC)nc3)cc21`: 0.38 nM.
For the compound `CCCOCCn1c(=O)c(NCC(N)=O)nc2ncc(-c3ccc(OC)nc3)cc21`, the IC50 is 2.59 nM.
The same measure, in the same setting: then `CCCOCCn1c(=O)c(NCCNCCO)nc2cnc(-c3ccc(OC)nc3)cc21`, with 1.1 nM; and `CCCOCCn1c(=O)c(NCC(=O)N2CCNCC2)nc2cnc(-c3ccc(OC)nc3)cc21`, with 1.65 nM; and `CCCOCCn1c(=O)c(N[C@H]2CC[C@H](O)CC2)nc2ncc(-c3ccc(OC)nc3)cc21`, with 0.32 nM.
`CCCOCCn1c(=O)c(NCc2cnccn2)nc2ncc(-c3ccc(OC)nc3)cc21` returned an IC50 of 0.28 nM.
On to `CCCOCCn1c(=O)c(NCCOCC)nc2ncc(-c3ccc(OC)nc3)cc21`, for which the IC50 is 0.17 nM.
As to `CCCOCCn1c(=O)c(NCc2ccccn2)nc2cnc(-c3ccc(OC)nc3)cc21`, the IC50 is 0.04 nM.
The compound `CCCOCCn1c(=O)c(NCC2CCCO2)nc2cnc(-c3ccc(OC)nc3)cc21` (racemic) gave an IC50 of 0.05 nM.
Turning to `CCCOCCn1c(=O)c(NCCO)nc2cnc(-c3ccc(OC)nc3)cc21`, it took 0.9 nM to reach half-maximal inhibition (IC50).
Compound `CCCOCCn1c(=O)c(NCc2ccccn2)nc2ncc(-c3ccc(OC)nc3)cc21` returned an IC50 of 0.36 nM.
`CCCOCCn1c(=O)c(NCC(=O)N2CCCC2)nc2cnc(-c3ccc(OC)nc3)cc21`: the IC50 was found to be 0.08 nM.
Compound `CCCOCCn1c(=O)c(NCC(=O)N2CCOCC2)nc2cnc(-c3ccc(OC)nc3)cc21` showed an IC50 of 0.15 nM. Compared with the last compound, the IC50 is about 1.9-fold higher.
`CCCOCCn1c(=O)c(NC[C@H](C)O)nc2ncc(-c3ccc(OC)nc3)cc21` gave an IC50 of 0.34 nM.
In turn, `CCCOCCn1c(=O)c(NCc2cnccn2)nc2cnc(-c3ccc(OC)nc3)cc21` came in with an IC50 of 0.06 nM.
As for `CCCOCCn1c(=O)c(NCC(=O)N2CCN(C)CC2)nc2ncc(-c3ccc(OC)nc3)cc21`, the IC50 amounted to 0.32 nM.
The compound `CCCOCCn1c(=O)c(NCC(=O)NC)nc2cnc(-c3ccc(OC)nc3)cc21` returned an IC50 of 0.07 nM.
In the case of `CCCOCCn1c(=O)c(NCC(N)=O)nc2cnc(-c3ccc(OC)nc3)cc21`, the IC50 was 0.68 nM.

The target of the next data set is Rod cGMP-specific 3',5'-cyclic phosphodiesterase subunit alpha (Homo sapiens, UniProt P16499). Kind of data set: Inhibition of PDE6.
Rod cGMP-specific 3',5'-cyclic phosphodiesterase subunit alpha, sequence (P16499 whole entry): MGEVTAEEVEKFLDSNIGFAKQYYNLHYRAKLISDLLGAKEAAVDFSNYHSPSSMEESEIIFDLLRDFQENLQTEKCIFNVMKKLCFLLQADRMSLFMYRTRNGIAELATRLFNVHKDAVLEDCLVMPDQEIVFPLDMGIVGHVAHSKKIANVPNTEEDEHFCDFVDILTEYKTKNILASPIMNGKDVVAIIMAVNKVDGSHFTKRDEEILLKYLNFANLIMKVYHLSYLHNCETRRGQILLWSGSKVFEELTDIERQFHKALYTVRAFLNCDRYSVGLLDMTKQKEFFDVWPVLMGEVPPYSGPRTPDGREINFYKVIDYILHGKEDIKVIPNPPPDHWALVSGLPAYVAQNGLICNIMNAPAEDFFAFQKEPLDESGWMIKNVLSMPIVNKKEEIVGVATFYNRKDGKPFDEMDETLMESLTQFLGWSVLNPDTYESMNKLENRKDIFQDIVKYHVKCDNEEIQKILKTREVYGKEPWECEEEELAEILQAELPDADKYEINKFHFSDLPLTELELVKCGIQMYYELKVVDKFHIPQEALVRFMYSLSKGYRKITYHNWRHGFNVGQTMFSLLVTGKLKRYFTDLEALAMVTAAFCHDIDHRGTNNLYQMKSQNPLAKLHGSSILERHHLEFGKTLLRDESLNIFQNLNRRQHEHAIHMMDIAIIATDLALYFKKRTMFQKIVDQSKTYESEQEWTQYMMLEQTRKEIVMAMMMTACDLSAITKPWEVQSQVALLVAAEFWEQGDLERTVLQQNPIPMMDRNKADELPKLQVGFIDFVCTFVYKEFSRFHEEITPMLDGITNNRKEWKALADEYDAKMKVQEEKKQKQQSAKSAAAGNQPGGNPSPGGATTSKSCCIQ
Details: not given
Compound `CCCOCCn1c(=O)c(NCCN(C)C)nc2ncc(-c3ccc(OC)nc3)cc21` displayed a half-maximal inhibitory concentration (IC50) of 1590 nM.
Consider `CCCOCCn1c(=O)c(NCCN)nc2ncc(-c3ccc(OC)nc3)cc21`, for which the IC50 was > 2000 nM.
`CCCOCCn1c(=O)c(N[C@H](C)CO)nc2cnc(-c3ccc(OC)nc3)cc21`: the IC50 turned out to be 17.7 nM.
`CCCOCCn1c(=O)c(NCC(=O)N2CCN(CC)CC2)nc2ncc(-c3ccc(OC)nc3)cc21` showed an IC50 of 98.9 nM.
Take `CCCOCCn1c(=O)c(NCC(N)=O)nc2ncc(-c3ccc(OC)nc3)cc21`: the concentration for half-maximal inhibition (IC50) was 398 nM.
Compound `CCCOCCn1c(=O)c(NCCNCCO)nc2cnc(-c3ccc(OC)nc3)cc21` came in with a concentration for half-maximal inhibition (IC50) of 272 nM.
The compound `CCCOCCn1c(=O)c(NCC(=O)N2CCNCC2)nc2cnc(-c3ccc(OC)nc3)cc21` came in with an IC50 of 100 nM.
Regarding `CCCOCCn1c(=O)c(N[C@H]2CC[C@H](O)CC2)nc2ncc(-c3ccc(OC)nc3)cc21`, the IC50 turned out to be 15.3 nM.
`CCCOCCn1c(=O)c(NCc2cnccn2)nc2ncc(-c3ccc(OC)nc3)cc21` had an IC50 of 23.6 nM.
With `CCCOCCn1c(=O)c(NCCOCC)nc2ncc(-c3ccc(OC)nc3)cc21`, it took 57.4 nM to reach half-maximal inhibition (IC50).
Regarding `CCCOCCn1c(=O)c(NCc2ccccn2)nc2cnc(-c3ccc(OC)nc3)cc21`, inhibition was half-maximal at 10.8 nM (IC50).
Compound `CCCOCCn1c(=O)c(NCC2CCCO2)nc2cnc(-c3ccc(OC)nc3)cc21` (racemic) had an IC50 of 8.6 nM.
Compound `CCCOCCn1c(=O)c(NCCO)nc2cnc(-c3ccc(OC)nc3)cc21` yielded an IC50 of 26.3 nM.
`CCCOCCn1c(=O)c(NCc2ccccn2)nc2ncc(-c3ccc(OC)nc3)cc21` returned an IC50 of 34.5 nM.
Consider `CCCOCCn1c(=O)c(NCC(=O)N2CCCC2)nc2cnc(-c3ccc(OC)nc3)cc21`, for which inhibition was half-maximal at 39.5 nM (IC50).
Same read-out and setting: then `CCCOCCn1c(=O)c(NCC(=O)N2CCOCC2)nc2cnc(-c3ccc(OC)nc3)cc21`, with 16.1 nM; and `CCCOCCn1c(=O)c(NC[C@H](C)O)nc2ncc(-c3ccc(OC)nc3)cc21`, with 51.8 nM; and `CCCOCCn1c(=O)c(NCc2cnccn2)nc2cnc(-c3ccc(OC)nc3)cc21`, with 4.7 nM.
Still for that read-out and setting: then `CCCOCCn1c(=O)c(NCC(=O)N2CCN(C)CC2)nc2ncc(-c3ccc(OC)nc3)cc21`, with 80.2 nM.
Turning to `CCCOCCn1c(=O)c(NCC(=O)NC)nc2cnc(-c3ccc(OC)nc3)cc21`, the IC50 was found to be 15.2 nM.
For the compound `CCCOCCn1c(=O)c(NCC(N)=O)nc2cnc(-c3ccc(OC)nc3)cc21`, the half-maximal inhibitory concentration (IC50) was determined as 86.6 nM.

The next data set concerns Rattus norvegicus. In words: Antihypertensive activity against telemeterized rat at 10 mg/kg, po. Also noted: dose 10 mg/kg. The format is functional, organism-based.
Details: not given
For `CCCOCCn1c(=O)c(NCCNCCO)nc2cnc(-c3ccc(OC)nc3)cc21`, the result was Active.
Still for that read-out and setting: then `CCCOCCn1c(=O)c(NCc2cnccn2)nc2ncc(-c3ccc(OC)nc3)cc21`, with “Active”; and `CCCOCCn1c(=O)c(NCCOCC)nc2ncc(-c3ccc(OC)nc3)cc21`, with “inactive”; and `CCCOCCn1c(=O)c(NCc2ccccn2)nc2cnc(-c3ccc(OC)nc3)cc21`, with “Active”.
The same measure, in the same setting: next, `CCCOCCn1c(=O)c(NCC2CCCO2)nc2cnc(-c3ccc(OC)nc3)cc21` (racemic): “Active”.
`CCCOCCn1c(=O)c(NCCO)nc2cnc(-c3ccc(OC)nc3)cc21`: the result was inactive.

Tested on in a further data set: not listed separately
In words: Clearance in rat at 2 mg/kg, po and 2 mg/kg, iv. In kind it is ADME, organism-based. The settings on record: in vivo.
`CCCOCCn1c(=O)c(NCCNCCO)nc2cnc(-c3ccc(OC)nc3)cc21` showed a clearance of 170 mL/min/kg.
On the same count and under the same terms, then `CCCOCCn1c(=O)c(NCc2ccccn2)nc2cnc(-c3ccc(OC)nc3)cc21`, with 21.9 mL/min/kg.
For `CCCOCCn1c(=O)c(NCC2CCCO2)nc2cnc(-c3ccc(OC)nc3)cc21` (racemic), the clearance was 52 mL/min/kg.
In turn, `CCCOCCn1c(=O)c(NCC(=O)N2CCOCC2)nc2cnc(-c3ccc(OC)nc3)cc21` showed a clearance of 9.1 mL/min/kg.

Tested on in a further data set: not listed separately
In words: Oral bioavailability in rat at 2 mg/kg. In kind it is ADME, organism-based. As to conditions: in vivo.
Regarding `CCCOCCn1c(=O)c(NCCNCCO)nc2cnc(-c3ccc(OC)nc3)cc21`, the bioavailability came out at 53%.
Still for that read-out and setting: next, `CCCOCCn1c(=O)c(NCc2ccccn2)nc2cnc(-c3ccc(OC)nc3)cc21`: 54%.
`CCCOCCn1c(=O)c(NCC(=O)N2CCOCC2)nc2cnc(-c3ccc(OC)nc3)cc21`: the bioavailability turned out to be 35%.

Tested on in the next data set: not listed separately
Kind of data set: Volume of distribution in rat at 2 mg/kg, iv and 2 mg/kg, po. In kind it is ADME, organism-based. The settings on record: in vivo.
As for `CCCOCCn1c(=O)c(NCC(=O)N2CCOCC2)nc2cnc(-c3ccc(OC)nc3)cc21`, the Vd was 0.5 L/kg.

Tested on in another data set: not listed separately
Kind of data set: Volume of distribution in dog at 2 mg/kg, iv and 2 mg/kg, po. The format is ADME, organism-based, Canis lupus familiaris. As to conditions: in vivo.
Take `CCCOCCn1c(=O)c(NCC(=O)N2CCOCC2)nc2cnc(-c3ccc(OC)nc3)cc21`: the Vd worked out at 1.2 L/kg.

Tested on in the next data set: not listed separately
In words: Clearance in dog at 2 mg/kg, po and 2 mg/kg, iv. The format is ADME, organism-based, Canis lupus familiaris. The settings on record: in vivo.
`CCCOCCn1c(=O)c(NCC(=O)N2CCOCC2)nc2cnc(-c3ccc(OC)nc3)cc21` returned a clearance of 5.3 mL/min/kg.

Tested on in the next data set: not listed separately
In words: Half life in rat at 2 mg/kg, po and 2 mg/kg, iv. The format is ADME, organism-based. The settings on record: in vivo.
For `CCCOCCn1c(=O)c(NCC(=O)N2CCOCC2)nc2cnc(-c3ccc(OC)nc3)cc21`, the half-life is 48 min.

Tested on in the next data set: not listed separately
Kind of data set: Half life in dog at 2 mg/kg, po and 2 mg/kg, iv. In kind it is ADME, organism-based, Canis lupus familiaris. As to conditions: in vivo.
`CCCOCCn1c(=O)c(NCC(=O)N2CCOCC2)nc2cnc(-c3ccc(OC)nc3)cc21`: the half-life was 234 min.

Tested on in a further data set: not listed separately
Kind of data set: Oral bioavailability in dog at 2 mg/kg. In kind it is ADME, organism-based, Canis lupus familiaris. The settings on record: in vivo.
As to `CCCOCCn1c(=O)c(NCC(=O)N2CCOCC2)nc2cnc(-c3ccc(OC)nc3)cc21`, the bioavailability was found to be 32%.

Tested on in the next data set: not listed separately
Kind of data set: Selectivity ratio of IC50 for PDE5 to IC50 for PDE6.
Details: not given
Consider `CCCOCCn1c(=O)c(NCCO)nc2cnc(-c3ccc(OC)nc3)cc21`, for which the Ratio IC50 was determined as 30.
